Measurements published in US8409836B2, “Treatment of cellulosic material and enzymes useful therein” (Roal Oy, priority 2005, dated 2013).

B1: At βG_101: beta-glucosidase of Acremonium thermophilum ALKO4245, gene At cel3A, amino acid SEQ ID NO: 24 (protein)
chain: MRQALVSLALLASSPVSAARELATSDPFYPSPWMNPEANGWEDAYAKAKAFVSQLTLLEKVNLTTGIGWQGGQCVGNVGSVPRLGLRSLCMQDSPVGIRFGDYVSVFPSGQTTAATFDKGLMNRRGNAMGQEHKGKGVNVLLGPVAGPIGRTPEGGRNWEGFSPDPVLTGIALAETIKGIQDAGVIACAKHFIANEQEHFRQSGEAQGYGFDISESLSSNIDDKTMHELYLWPFADGVRAGVGAIMCSYNQINNSYGCQNSKTLNNLLKNELGFQGFVMSDWQAQHTGAASAVAGLDMTMPGDTSFNTGLSYWGTNLTLAVLNGTVPEYRIDDMVMRIMAAFFKTGQTLDLPPINFDSWTTDTFGPLHFAVNEDRQQINWHVNVQDNHGSLIREIAAKGTVLLKNTGSLPLNKPKFLVVVGDDAGPNPAGPNACPDRGCDVGTLGMAWGSGSANFPYLITPDAALQAQAIKDGTRYESVLSNYQLDQTKALVTQANATAIVFVNADSGEGYINVDGNEGDRKNLTLWHDGDALIKSVAGWNPNTIVVIHSTGPVLVTDWYDHPNITAILWAGVPGQESGNAITDVLYGKVNPSGRSPFTWGPTRESYGTDVLYTPNNGKGAPQQAFSEGVFIDYRHFDRTNASVIYEFGHGLSYTTFQYSNIQVVKSNAGAYKPTTGTTIPAPTFGSFSKDLKDYLFPSDQFRYITQYIYPYLNSTDPAKASLDPHYGKTAAEFLPPHALDSNPQPLLRSSGKNEPGGNRQLYDILYTVTADITNTGSIVGAEVPQLYVSLGGPDDPKVVLRGFDRIRIDPGKTAQFRVTLTRRDLSNWDPAIQDWVISKYPKKVYIGRSSRKLELSADLA

Assays:
Format in all cases: biochemical
[1] = biological target: T1, Chaetomium thermophilum ALKO4265 cellobiohydrolase Ct Cel7A (Ct CBH/Cel7A), recombinant, SEQ ID NO: 8 (Thermochaetoides thermophila, UniProt A7WNU1); test: Cellobiose inhibition constant, CNPLac as substrate
T1 sequence (A7WNU1 19-532): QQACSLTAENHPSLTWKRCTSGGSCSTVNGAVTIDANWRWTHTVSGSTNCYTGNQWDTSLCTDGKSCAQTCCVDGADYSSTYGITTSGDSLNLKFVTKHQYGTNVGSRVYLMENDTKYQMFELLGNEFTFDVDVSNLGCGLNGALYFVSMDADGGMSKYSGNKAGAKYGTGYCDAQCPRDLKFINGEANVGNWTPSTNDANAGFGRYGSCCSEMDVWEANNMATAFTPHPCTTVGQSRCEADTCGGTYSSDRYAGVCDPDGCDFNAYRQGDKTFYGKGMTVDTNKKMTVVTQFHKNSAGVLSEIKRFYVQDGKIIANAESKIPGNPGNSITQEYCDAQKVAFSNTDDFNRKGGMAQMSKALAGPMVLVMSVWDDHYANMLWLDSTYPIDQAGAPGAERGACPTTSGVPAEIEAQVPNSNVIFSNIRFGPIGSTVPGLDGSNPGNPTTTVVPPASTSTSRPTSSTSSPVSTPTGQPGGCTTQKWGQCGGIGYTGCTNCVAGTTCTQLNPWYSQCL
Description: (§1) The Michaelis-Menten and cellobiose inhibition constants were determined from the cellobiohydrolases produced heterologously in T. reesei (Examples 14 and 15). The enzymes were purified as described in Example 2. Protein concentrations of purified enzymes were measured by their absorption at 280 nm using a theoretical molar extinction co-efficient, which were calculated from the amino acid sequences (Gill and von Hippel, 1989).
(§2) Kinetic constants (Km and kcat values) and cellobiose inhibition constant (Ki) for Tr CBHI/Cel7A, Ta CBH/Cel7A, At CBH/Cel7A and Ct CBH/Cel7A, were measured using CNPLac (2-Chloro-4-nitrophenyl-β-D-lactoside) as substrate at ambient temperature (22° C.) in 50 mM sodium phosphate buffer, pH 5.7. For the determination of the inhibition constant (Ki), eight different substrate concentrations (31-4000 μM) in the presence of a range of five inhibitor concentrations (0-100 μM or 0-400 μM), which bracket the Ki value, were used. All experiments were performed in microtiter plates and the total reaction volume was 200 μl. The initial rates were in each case measured by continuous monitoring the release of the chloro-nitrophenolate anion (CNP, 2-Chloro-4-nitrophenolate) through measurements at 405 nm using Varioscan (Thermolabsystems) microtiter plate reader. The results were calculated from CNP standard curve (from 0 to 100 μM). Enzyme concentrations used were: Tr CBHI/Cel7A 2.46 μM, Ta CBH/Cel7A 1.58 μM, Ct CBH/Cel7A 0.79 μM and At CBH/Cel7A 3 μM. The Km and kcat constants were calculated from the fitting of the Michaelis-Menten equation using the programme of Origin. Lineweaver-Burk plots, replots (LWB slope versus [Glc2; cellobiose]) and Hanes plots were used to distinguish between competitive and mixed type inhibition and to determine the inhibition constants (Ki).

[2] = biological target: T2, Thermoascus aurantiacus ALKO4242 cellobiohydrolase Ta Cel7A (Ta CBH/Cel7A), recombinant, SEQ ID NO: 2 (Thermoascus aurantiacus, UniProt A7WNU2); test: as above
T2 sequence (A7WNU2 18-457): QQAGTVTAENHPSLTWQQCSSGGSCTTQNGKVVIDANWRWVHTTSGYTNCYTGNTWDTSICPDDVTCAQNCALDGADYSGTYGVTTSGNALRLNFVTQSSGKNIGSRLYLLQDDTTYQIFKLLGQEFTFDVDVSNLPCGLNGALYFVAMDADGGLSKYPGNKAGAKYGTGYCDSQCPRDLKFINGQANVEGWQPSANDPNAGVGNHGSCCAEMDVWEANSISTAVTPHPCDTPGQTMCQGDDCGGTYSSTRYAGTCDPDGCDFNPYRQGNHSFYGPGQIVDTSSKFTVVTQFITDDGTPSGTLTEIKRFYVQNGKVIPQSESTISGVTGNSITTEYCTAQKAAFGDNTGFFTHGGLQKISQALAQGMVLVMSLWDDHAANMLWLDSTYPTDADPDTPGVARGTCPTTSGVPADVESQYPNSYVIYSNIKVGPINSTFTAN
Description: as §1, §2

[3] = biological target: T3, Acremonium thermophilum ALKO4245 cellobiohydrolase At Cel7A (At CBH/Cel7A), recombinant, SEQ ID NO: 6 (Phialemonium thermophilum, UniProt A7WNT9); test: as above
T3 sequence (A7WNT9 18-523): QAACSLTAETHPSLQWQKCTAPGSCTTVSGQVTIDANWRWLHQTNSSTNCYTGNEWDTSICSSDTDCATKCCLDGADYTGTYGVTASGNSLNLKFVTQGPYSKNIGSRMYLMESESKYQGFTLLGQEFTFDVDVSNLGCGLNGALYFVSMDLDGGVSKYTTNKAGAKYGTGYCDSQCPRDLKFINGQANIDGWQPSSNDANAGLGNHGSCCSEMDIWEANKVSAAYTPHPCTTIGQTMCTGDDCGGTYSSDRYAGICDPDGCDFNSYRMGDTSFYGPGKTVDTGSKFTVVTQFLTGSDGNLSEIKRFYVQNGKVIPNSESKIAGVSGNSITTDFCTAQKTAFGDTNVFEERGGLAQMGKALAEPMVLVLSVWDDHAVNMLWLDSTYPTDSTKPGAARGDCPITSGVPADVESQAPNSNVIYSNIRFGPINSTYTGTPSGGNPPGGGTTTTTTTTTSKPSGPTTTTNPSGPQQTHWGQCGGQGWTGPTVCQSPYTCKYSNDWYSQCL
Description: as §1, §2

[4] = biological target: Trichoderma reesei cellobiohydrolase I Tr Cel7A (Tr CBHI/Cel7A) (Trichoderma reesei, UniProt A0A024RXP8); test: as above
Description: as §1, §2

[5] = Temperature optimum of heterologously produced β-glucosidases; conditions: temperature range 50-85° C., 60 min
Description: (§3) The pH optimum of the heterologously produced β-glucosidases was determined in the universal McIlvaine's buffer within a pH range of 3.0-8.0 using 4-nitrophenyl-β-D-glucopyranoside as substrate. The pH optima for the Acremonium βG—101, Chaetomium βG—76, and Thermoascus βG—81 are pH 4.5, 5.5, and 4.5, respectively (FIG. 7 A). The optimal temperature for enzymatic activity of these β-glucosidases was determined at the temperature range of 50-85° C. as described above. The highest activity of the enzymes was determined to be at 70° C., 65° C., and 75° C. for the Acremonium βG—101/Cel3A, Chaetomium βG—76/Cel3A, and Thermoascus βG—81/Cel3A, respectively (FIG. 7 B).

[6] = β-glucosidase activity on 4-nitrophenyl-β-D-glucopyranoside; conditions: purified β-glucosidase, 50° C.
Description: (§4) Acremonium Thermophilum ALKO4245 was grown as described in Example 1. The pure β-glucosidase was obtained by sequential purification with hydrophobic interaction and anion exchange chromatography followed by gel filtration. The β-glucosidase activity of the fractions collected during purification was determined using 4-nitrophenyl-β-D-glucopyranoside as substrate (Bailey and Linko, 1990). Protein content was measured by BioRad Assay Kit (Bio-Rad Laboratories) using bovine serum albumine as standard.
as §4, with “Thermoascus aurantiacus ALKO4242” for “Acremonium Thermophilum ALKO4245”, “interaction, anion” for “interaction”, “cation” for “anion”

[7] = Thermal stability of purified β-glucosidase; conditions: 0.1 mg/ml BSA, pH 5.0, 60 min, 4-nitrophenyl-β-D-glucopyranoside
Description: (§5) Thermal stability of the purified β-glucosidase was determined at different temperatures. The reaction was performed in the presence of 0.1 mg/ml BSA at pH 5.0 for 60 min using 4-nitrophenyl-β-D-glucopyranoside as substrate. A. thermophilum βG—101 was stable up to 70° C. The Aspergillus reference enzyme (Novozym 188) retained 100% of activity up to 60°.
as §5, with “T. aurantiacus βG—81” for “A. thermophilum βG—101”, “75°” for “70°”, “60° C.” for “60°.”

[8] = pH optimum of heterologously produced β-glucosidases; conditions: McIlvaine's buffer, pH range 3.0-8.0, 4-nitrophenyl-β-D-glucopyranoside
Description: as §3

Trichoderma reesei cellobiohydrolase I Tr Cel7A (Tr CBHI/Cel7A), sequence (A0A024RXP8 18-514): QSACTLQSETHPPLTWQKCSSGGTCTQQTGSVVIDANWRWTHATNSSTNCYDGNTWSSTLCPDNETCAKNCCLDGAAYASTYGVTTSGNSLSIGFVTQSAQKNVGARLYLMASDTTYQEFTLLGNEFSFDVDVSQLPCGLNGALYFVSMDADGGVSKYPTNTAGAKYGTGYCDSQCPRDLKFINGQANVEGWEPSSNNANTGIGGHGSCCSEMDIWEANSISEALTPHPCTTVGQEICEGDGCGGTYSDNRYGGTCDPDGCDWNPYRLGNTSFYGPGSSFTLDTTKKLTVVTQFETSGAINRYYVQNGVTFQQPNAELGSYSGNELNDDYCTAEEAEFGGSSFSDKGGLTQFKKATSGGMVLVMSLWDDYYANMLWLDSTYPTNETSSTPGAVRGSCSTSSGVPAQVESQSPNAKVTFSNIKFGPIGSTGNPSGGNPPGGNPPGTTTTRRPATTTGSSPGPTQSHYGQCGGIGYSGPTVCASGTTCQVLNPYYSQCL

Row | Molecule | Ki [1] [µM] | Type of inhibition ([1]; Ct Cel7A, CNPLac substrate, 50 mM sodium phosphate pH 5.7, 22° C.) | Ki [2] [µM] | Type of inhibition ([2]; Ta Cel7A, CNPLac substrate, 50 mM sodium phosphate pH 5.7, 22° C.) | Ki [3] [µM] | higher inhibition constant as compared to that of Tr CBHI/Cel7A ([3]; At CBH/Cel7A vs Tr CBHI/Cel7A, cellobiose) | Type of inhibition ([3]; At Cel7A, CNPLac substrate, 50 mM sodium phosphate pH 5.7, 22° C.) | Ki [4] [µM] | Type of inhibition ([4]; Tr Cel7A (control), CNPLac substrate, 50 mM sodium phosphate pH 5.7, 22° C.) | Temperature of highest activity [5] [°C] | Specific activity on 4-nitrophenyl-β-D-glucopyranoside [6] [nkat/mg] | Thermal stability: temperature up to which stable / 100% of activity retained [7] | pH optimum [8]
1 | OC[C@H]1O[C@@H](O[C@H]2[C@H](O)[C@@H](O)C(O)O[C@@H]2CO)[C@H](O)[C@@H](O)[C@@H]1O (stereo partly shown) [cellobiose] | 39 | competitive | 107 | competitive | 141 | over 7 fold | competitive | 19 | competitive |  |  |  | 
2 | B1 |  |  |  |  |  |  |  |  |  | 70 | 1100 | up to 70 °C | 4.5
